Publication PMC7175203, “PIRT the TRP Channel Regulating Protein Binds Calmodulin and Cholesterol-Like Ligands” (Biomolecules, 2020)
Bridge positions count the residues as written; N and C are the ends. Ends that are not written are not given here.

How the values were obtained:
[1] = biological target: T1, PIRT (Phosphoinositide-interacting regulator of TRP) (Homo sapiens, UniProt P0C851); assay: microscale thermophoresis; type: binding
[2] = biological target: T1, PIRT (Phosphoinositide-interacting regulator of TRP); assay: microscale thermophoresis; […]-PIRT HSQC NMR chemical shift perturbation; type: binding
[3] = biological target: Calmodulin (holo) (UniProt P0DP23); assay: tryptophan fluorescence; details: cited from earlier work
[4] = biological target: T2, Human PIRT (phosphoinositide-interacting regulator of TRP), fluorescently labeled for MST (human, UniProt P0C851 1-137, fluorescently labeled (dye and site not stated; by the protocol of ref. 24)); assay: MST; 200 nM fluorescently labeled PIRT, peptide hormone titrated; 0.1% DPC (w/v), 50 mM HEPES, pH 7.0; room temperature; triplicate; details: both partners purified
T2 construct: Measured in 0.1% DPC micelles; The His tag is named only for the pull-down; also called MST labeled PIRT; source: purified
T2 sequence (P0C851 whole entry): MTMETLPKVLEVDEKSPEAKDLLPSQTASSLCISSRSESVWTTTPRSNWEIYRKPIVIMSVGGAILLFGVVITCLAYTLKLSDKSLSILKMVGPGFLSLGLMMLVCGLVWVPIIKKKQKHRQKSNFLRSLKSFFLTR

T1 sequence (P0C851 whole entry): as above

C=C1CC[C@H](O)C/C1=C/C=C1\CCC[C@]2(C)[C@@H]([C@H](C)CCCC(C)C)CC[C@@H]12 [Cholecalciferol]
Kd [1]: 2100 µM

C[C@]12CCC(=O)C=C1CC[C@@H]1[C@@H]2[C@@H](O)C[C@@]2(C)[C@H]1CC[C@]2(O)C(=O)CO [Cortisol]
Kd ([1]; read-out: Kd): 790 µM

CC(C)CCC[C@@H](C)[C@H]1CC[C@H]2[C@@H]3CC=C4C[C@@H](OC(=O)CCC(=O)O)CC[C@]4(C)[C@H]3CC[C@]12C [cholesteryl-hemisuccinate]
Kd ([1]; read-out: Kd): 103 µM

C[C@]12CC[C@@H]3c4ccc(O)cc4CC[C@H]3[C@@H]1CC[C@@H]2O [β-Estradiol]
Kd [2]: 800 µM

TRPV1 distal C-terminus (from UniProt O35433)
Kd [3]: 54 nM

B1: Oxytocin (peptide, UniProt P01178 20-28, looked up)
peptide: CYIQNCPLG-NH2
modifications: disulfide 1-6
notes: oxytocin, peptide hormone, cyclic nonapeptide cut from the oxytocin-neurophysin 1 precursor
Kd [4]: 7 µM
